Where a SMILES comes first, the peptide text is derived from it. The star is where a group is joined. Palmitoyl = CCCCCCCCCCCCCCCC(=O)*
Experiments:
Assay type in all cases: cell-based
[1] = test system: HIV-1 NL4-3 pseudovirus (WT); details: Table 3; for Fold change in IC50: WT NL4-3 reference; for IC50: WT NL4-3, TZM-bl cells, 48 h, luciferase, means, triplicate, repeated three times
Procedure: (§1) The infectivity of HIV Env mutants and the inhibitory activities of membrane fusion inhibitors on mutants in TZM-bl cells were measured using a single-cycle infection assay as described previously. Briefly, the HIV pseudovirus was packed using an Env-coding plasmid, and pSG3ΔEnv was co-transfected into HEK293T cells. pSG3ΔEnv encodes an Env-defective, luciferase-expressing HIV-1 genome. After the pseudoviruses were harvested and filtrated, the amount of pseudoviruses was fixed via P24 antigen, and their infectivity was determined in TZM-bl cells. In order to measure the inhibitory activities of the inhibitors, inhibitors diluted serially 3-fold were mixed with an equal volume of pseudoviruses, and then 100 µL 1 × 10^5/mL TZM-bl cells were added to the mixture and incubated at 37 °C with 5% CO2 for 48 h. After that, TZM-bl cells were lysed using reporter lysis buffer, and IC50 values were calculated according to luciferase activity measured by luciferase assay reagents and a luminescence counter (Promega, Madison, WI, USA).

[2] = test system: HIV-1 NL4-3 gp41 NDQEEDYN pseudovirus; details: Table 3; for Fold change in IC50: NDQEEDYN relative to WT NL4-3; for IC50: NDQEEDYN (E109N, N113D, E119Q, D121E, N125E, S129D, H132Y, S133N), TZM-bl cells, 48 h, luciferase, means, triplicate, repeated three times
Procedure: (§2) We selected LP-40-induced drug resistance typical point mutations and combination mutation pseudoviruses to evaluate the current representative membrane fusion inhibitors.
as §1

[3] = test system: HIV-1 NL4-3 gp41 V38A/N42T pseudovirus; details: Table 3; for Fold change in IC50: V38A/N42T relative to WT NL4-3; for IC50: V38A/N42T, TZM-bl cells, 48 h, luciferase, means, triplicate, repeated three times
Procedure: as §2, §1

[4] = test system: HIV-1 NL4-3 gp41 L33S/V38A/N42T pseudovirus; details: Table 3; for Fold change in IC50: L33S/V38A/N42T relative to WT NL4-3; for IC50: L33S/V38A/N42T, TZM-bl cells, 48 h, luciferase, means, triplicate, repeated three times
Procedure: as §2, §1

[5] = test system: HIV-1 NL4-3 gp41 NDQEEDYN/L33S/V38A/N42T pseudovirus; details: Table 3; for Fold change in IC50: NDQEEDYN/L33S/V38A/N42T relative to WT NL4-3; for IC50: NDQEEDYN/L33S/V38A/N42T, TZM-bl cells, 48 h, luciferase, means, triplicate, repeated three times
Procedure: as §2, §1

[6] = test system: HIV-1 NL4-3 gp41 NDQEEDYN/L33S/I37T pseudovirus; details: Table 3; for Fold change in IC50: NDQEEDYN/L33S/I37T relative to WT NL4-3; for IC50: NDQEEDYN/L33S/I37T, TZM-bl cells, 48 h, luciferase, means, triplicate, repeated three times
Procedure: as §2, §1

[7] = test system: HIV-1 NL4-3 gp41 L33S/I37T pseudovirus; details: Table 3; for Fold change in IC50: L33S/I37T relative to WT NL4-3; for IC50: L33S/I37T, TZM-bl cells, 48 h, luciferase, means, triplicate, repeated three times
Procedure: as §2, §1

[8] = test system: HIV-1 NL4-3 gp41 I37T pseudovirus; details: Table 3; for Fold change in IC50: I37T relative to WT NL4-3; for IC50: I37T, TZM-bl cells, 48 h, luciferase, means, triplicate, repeated three times
Procedure: (§3) Viral RNA was extracted from the supernatant, and, after reverse transcription, the cDNA was amplified using PCR. These amplified DNA were connected to the T-Easy vector and transformed to Trans 2-Blue Chemically Competent Cells. These sequences were determined via sequencing. The expression plasmids, which contained different HIV-1NL4-3 Env mutants, were constructed using DNA assembly (NEBuilder® HiFi DNA Assembly Master Mix). In brief, two primers were used to amplify Env, and the other two primers were used to amplify the vector fragment. The products of PCR were purified with a 20–25 bp overlap in the terminal of Env and the vector fragment Env and the vector fragment were added to the DNA assembly master mix at […] for 15 min and then transformed to Trans 2-Blue Chemically Competent Cells. Additionally, a single-point mutation was generated using double-stranded DNA templates and a selection of mutants with a restriction enzyme (DpnI) as described previously.
as §1

[9] = test system: HIV-1 NL4-3 gp41 I69V pseudovirus; details: Table 3; for Fold change in IC50: I69V relative to WT NL4-3; for IC50: I69V, TZM-bl cells, 48 h, luciferase, means, triplicate, repeated three times
Procedure: as §3, §1

[10] = test system: HIV-1 NL4-3 gp41 L33S pseudovirus; details: Table 3; for Fold change in IC50: L33S relative to WT NL4-3; for IC50: L33S, TZM-bl cells, 48 h, luciferase, means, triplicate, repeated three times
Procedure: as §3, §1

SMILES	Fold change in IC50 [1]	Fold change in IC50 [2]	Fold change in IC50 [3]	Fold change in IC50 [4]	Fold change in IC50 [5]	Fold change in IC50 [6]	Fold change in IC50 [7]	Fold change in IC50 [8]	Fold change in IC50 [9]	Fold change in IC50 [10]	IC50 [1]	IC50 [2]	IC50 [3]	IC50 [4]	IC50 [5]	IC50 [6]	IC50 [7]	IC50 [8]	IC50 [9]	IC50 [10]
CCCCCCCCCCCCCCCC(=O)NCCCC[C@H](NC(=O)[C@H](CC(C)C)NC(=O)[C@H](CC(C)C)NC(=O)[C@H](CCC(=O)O)NC(=O)[C@H](CCC(=O)O)NC(=O)[C@@H](NC(=O)[C@H](CCCCN)NC(=O)[C@H](CCCCN)NC(=O)[C@H](CCC(=O)O)NC(=O)[C@H](CC(C)C)NC(=O)[C@H](CCC(=O)O)NC(=O)[C@H](CCC(=O)O)NC(=O)[C@@H](NC(=O)[C@H](CCCCN)NC(=O)[C@H](CCCCN)NC(=O)[C@H](CCC(=O)O)NC(=O)[C@H](Cc1c[nH]c2ccccc12)NC(=O)[C@H](CCC(=O)O)NC(=O)[C@H](CCC(=O)O)NC(=O)[C@H](Cc1c[nH]c2ccccc12)NC(=O)[C@@H](NC(=O)[C@H](CCSC)NC(=O)[C@H](CCC(=O)O)NC(C)=O)[C@@H](C)O)C(C)C)[C@@H](C)CC)C(N)=O [LP-19] (Ac-EMTWEEWEKKVEELEKKIEELLK(Palmitoyl)-NH2)	1.00 fold	1.68 fold	0.66 fold	0.56 fold	1.48 fold	3.04 fold	1.25 fold	1.62 fold	1.00 fold	1.61 fold	–	–	–	–	–	–	–	–	–	–
CC[C@H](C)[C@H](NC(=O)[C@H](CCC(=O)O)NC(=O)[C@H](CCCNC(=N)N)NC(=O)[C@H](CCC(=O)O)NC(=O)[C@H](Cc1c[nH]c2ccccc12)NC(=O)[C@@H](NC(=O)[C@H](CCC(=O)O)NC(=O)[C@H](Cc1c[nH]c2ccccc12)NC(=O)[C@H](CO)NC(C)=O)[C@@H](C)O)C(=O)N[C@@H](CCC(=O)O)C(=O)N[C@@H](CC(N)=O)C(=O)N[C@@H](Cc1ccc(O)cc1)C(=O)N[C@H](C(=O)N[C@@H](CCCNC(=N)N)C(=O)N[C@@H](CCC(N)=O)C(=O)N[C@H](C(=O)N[C@@H](Cc1ccc(O)cc1)C(=O)N[C@@H](CCCNC(=N)N)C(=O)N[C@H](C(=O)N[C@@H](CC(C)C)C(=O)N[C@@H](CCC(=O)O)C(=O)N[C@@H](CCC(=O)O)C(=O)N[C@@H](CO)C(=O)N[C@@H](CCC(N)=O)C(=O)N[C@@H](CCC(=O)O)C(=O)N[C@@H](CCC(N)=O)C(=O)N[C@@H](CCC(N)=O)C(=O)N[C@@H](CC(=O)O)C(=O)N[C@@H](CCCNC(=N)N)C(=O)N[C@@H](CC(N)=O)C(=O)N[C@@H](CCC(=O)O)C(=O)N[C@@H](CCCNC(=N)N)C(=O)N[C@@H](CC(=O)O)C(=O)N[C@@H](CC(C)C)C(=O)N[C@@H](CC(C)C)C(=O)N[C@@H](CCC(=O)O)C(N)=O)[C@@H](C)CC)[C@@H](C)CC)[C@@H](C)O [SFT] (Ac-SWETWEREIENYTRQIYRILEESQEQQDRNERDLLE-NH2)	1.00 fold	5.15 fold	74.48 fold	166.68 fold	473.54 fold	70.71 fold	14.72 fold	7.21 fold	1.07 fold	3.00 fold	1.56 nM	8.03 nM	116 nM	260 nM	739 nM	110 nM	23 nM	11.2 nM	1.67 nM	4.67 nM
CC[C@H](C)[C@H](NC(=O)[C@H](CCC(N)=O)NC(=O)[C@H](C)NC(=O)[C@H](CCC(N)=O)NC(=O)[C@H](CCC(=O)O)NC(=O)[C@H](CC(C)C)NC(=O)[C@H](CC(C)C)NC(=O)[C@H](C)NC(=O)[C@@H](NC(=O)[C@@H](NC(=O)[C@H](CCCCN)NC(=O)[C@H](CCC(N)=O)NC(=O)[C@H](CCC(=O)O)NC(=O)[C@H](Cc1c[nH]c2ccccc12)NC(=O)[C@H](CCC(=O)O)NC(=O)[C@H](CCC(N)=O)NC(=O)[C@H](Cc1c[nH]c2ccccc12)NC(C)=O)[C@@H](C)CC)[C@@H](C)O)C(=O)N[C@@H](CCC(N)=O)C(=O)N[C@@H](CCC(N)=O)C(=O)N[C@@H](CCC(=O)O)C(=O)N[C@@H](CCCCN)C(=O)N[C@@H](CC(N)=O)C(=O)N[C@@H](CCC(=O)O)C(=O)N[C@@H](Cc1ccc(O)cc1)C(=O)N[C@@H](CCC(=O)O)C(=O)N[C@@H](CC(C)C)C(=O)N[C@@H](CCC(N)=O)C(=O)N[C@@H](CCCCN)C(=O)N[C@@H](CC(C)C)C(=O)N[C@@H](CC(=O)O)C(=O)N[C@@H](CCCCN)C(=O)N[C@@H](Cc1c[nH]c2ccccc12)C(=O)N[C@@H](C)C(=O)N[C@@H](CO)C(=O)N[C@@H](CC(C)C)C(=O)N[C@@H](Cc1c[nH]c2ccccc12)C(=O)N[C@@H](CCC(=O)O)C(=O)N[C@@H](Cc1c[nH]c2ccccc12)C(=O)N[C@@H](Cc1ccccc1)C(N)=O [T1249]	1.00 fold	0.94 fold	23.77 fold	227.04 fold	301.12 fold	145.54 fold	–	1.21 fold	0.82 fold	11.41 fold	1.14 nM	1.07 nM	27.1 nM	259 nM	343 nM	166 nM	81.5 nM	1.38 nM	0.93 nM	13 nM

From publication PMC9223764, “In Vitro Selection and Characterization of HIV-1 Variants with Increased Resistance to LP-40, Enfuvirtide-Based Lipopeptide Inhibitor” (International Journal of Molecular Sciences, 2022)
